Key:
[1] = test system: delayed cerebral vasospasm
Method: The same model as in Example 1 was used to study changes over time in basilar artery diameter. The determination of basilar artery diameter was performed as described in the above-mentioned reference. That is, the diameter was measured angiographically on days 1 to 7 and expressed as a % change from the original diameter (% change before treatment was set to 0).
All data were expressed as mean±SEM.
The data was statistically processed such that intragroup comparison was performed by paired t-test and intergroup comparison was performed according to variance analysis.

HO-1 mRNA = settings: blood i.c. + compound i.v. 1 mg/kg/min continuously for 2 days; basilar arterial walls, day 2; vs blood i.c.+saline i.v.
Method: The preparation of rat cerebral vasospasm model and the determination of HO-1 mRNA expression level were performed according to a documented method (see The Journal of Clinical Investigation, Vol. 104, No. 1, July 1999).
Each single hemorrhage model was injected with 0.5 ml autologous arterial blood into its cisterna magna. […] After administration, the level of mRNA expressed in basilar arterial walls was determined on day 2 using a quantitative RT-PCR technique.
It is for this reason that the mRNA expression level was determined on day 2.
All data were expressed as mean±SEM. The expression level of HO-2 was used as a denominator in calculating the ratio because the expression level of HO-2 was not assumed to change appreciably in this model and therefore, when used as a denominator, would enable changes in HO-1 expression level to be objectively evaluated while ignoring individual differences. […] The data were statistically processed according to variance analysis. A single asterisk (*) denotes a statistically significant difference from “saline i.c.” at p<0.05 level and two asterisks (**) denote a statistically significant difference from “blood i.c.+saline i.v.” at p<0.01 level.

HO-1 protein = settings: after injection of autologous arterial blood; compound i.v. 2 days; basilar arterial walls, day 2
Source text: The same animal model as in Example 1 was used to study changes in HO-1 protein expression level after the same treatment as shown in Example 1. The changes in protein expression level were detected by Coomassie staining and Western blotting, as described in the abovementioned reference. In this figure, the upper and lower panels show the results of Coomassie staining and Western blotting, respectively. Each of the lanes shown in FIG. 2 has the same definition as the corresponding sample in FIG. 1.

## CC(CNC(=O)c1cccnc1)NC(=O)c1cccnc1 (stereo not shown) [1,2-bis(nicotinamide)propane]
[1]; blood i.c. + compound i.v. continuously for 7 days, angiography days 1 to 7
  delayed cerebral vasospasm (% change in basilar artery diameter): significant amelioration of delayed cerebral vasospasm
[1]; saline i.c. + compound i.v. continuously for 7 days
  diameter of cerebral blood vessels in the absence of hemorrhage: not affected
HO-1 mRNA
  HO-1 mRNA expression level (HO-1/HO-2 ratio): significant increase in HO-1 mRNA expression level
HO-1 protein
  HO-1 protein induction: causes or enhances HO-1 protein induction
